These results are taken from patent US11903956B2, “Compositions and products for infectious or inflammatory diseases or conditions” (B&H BIOTECHNOLOGIES, LLC, priority 2013, dated 2024).

The subject of assay [1] is dogs suffered from respiratory infections. Briefly: Treatment of respiratory infections of dogs. The format is in vivo. As for the experimental part: The formula-3.2 as prepared above in 6.1 was used via oral administration for the prevention or treatment of respiratory infections or disorders of dogs.
Two groups of dogs suffered from respiratory infections with the symptoms of runny nose, coughing, chills, fever and weakness/fatigue (etc.) were treated once per day via oral administration or intramuscular injection with: 1) Tulathromycin according to manufacture's instruction (antibiotic group, n=6); 2) 1.5 ml/kg of body weight of the formula-3.2 (n =6); and 3) Tulathromycin and 1.5 ml/kg of body weight of the formula-3.2 (n=9).

Assay [2] deals with respiratory infections accompanied with the respiratory syndrome (asthma). Briefly: Treatment of respiratory infections or disorders of piglets. The class given is in vivo. The text has this: The formulations of 1.2 and 3.2 as prepared above in 6.1 were used for the prevention and treatment of respiratory infections or disorders of piglets. The ORS alone and a commercially available antibiotic product, Timicosin were used as controls. In addition, combination of formula 3.2 and Timicosin was used for the treatment of respiratory infections or disorders of piglets.
Weaning piglets (10˜15 kg, aged 5-7 weeks) suffered from respiratory infections accompanied with the respiratory syndrome characterized by asthma-like symptoms (difficulty with breath). The sick piglets were treated separately once a day via oral administration or intramuscular injection with 1) Tilmicosin according to manufacture's instructions (n=39); 2) 1 ml/kg of body weight of the formula-3.2 (n=36); and 3) Tilmicosin and 1 ml/kg of body weight of the formula-3.2 (n=41).

For another assay, the system named is rhesus rotavirus (RRV). Kind of assay: Treatment of rotavirus infection of mouse pups with formulations. To be noted: RRV-infected mouse pups.
Assay [3] concerns sucking or weaning piglets with various diarrheas or infective gastroenteritis. Briefly: Treatment of piglet diarrhea at ages 5-40 days with formula-2.2. The class given is in vivo. The procedure: The formula-2.2 as prepared above in 6.1 was used for the treatment of diarrhea piglets at ages 5-40 days.
Two groups of sucking or weaning piglets with various diarrheas or infective gastroenteritis at ages of 5-40 days were treated once per day via oral administration with: 1) Enrofloxacin according to manufacture's instruction (antibiotic group, n=139); and 2) 1 ml/kg of body weight of the formula-2.2 (n=262).

Assay [4] deals with sucking piglets with yellow watery diarrhea or infective gastroenteritis. Briefly: Treatment of piglet diarrhea at ages 1-5 days with formulations. The format is in vivo. The text has this:
Diarrhea is a common disorder with sucking or weaning piglets. Viral or bacterial infections are common causes of piglet diarrhea. Piglets with viral diarrhea usually have yellow watery stools and piglets with bacterial diarrhea usually have gray stools. Sometimes, yellow diarrhea is accompanied with vomiting showing the characteristic of infective gastroenteritis. Often, piglet diarrhea or infective gastroenteritis is caused by mixed infection of viruses and bacteria. Piglets younger than one week could have a serious viral diarrhea or infective gastroenteritis with high death rates from about 70% to over 90%.
The formulations of 1.2, 2.2, 3.2 and 4.2 as prepared above in 6.1 were used for the treatment of diarrhea piglets at ages 1-5 days. […] In addition, combination of formula 1.2 and Enrofloxacin was also used for the treatment of piglet diarrhea.
Seven groups of sucking piglets with yellow watery diarrhea or infective gastroenteritis at ages of 1-5 days were treated once per day via oral administration or muscular injection with: 1) 1 ml/kg of body weight of ORS alone (control group, n=50); 2) Enrofloxacin according to manufacture's instruction (antibiotic control, n=69); 3) 1 ml/kg of body weight of the formula-1.2 (n=49); 4) 1 ml/kg of body weight of the formula-2.2 (n=82); 5) 1 ml/kg of body weight of the formula-3.2 (n=55); 6) 1 ml/kg of body weight of the […]; and 7) 1 ml/kg of body weight of the formula-1.2 plus Enrofloxacin (n=32).

Assay [5] relates to influenza virus of A/PR/8/34(H1N1). The format is in vivo, mouse.
For assay [6], the system named is dogs suffered from acute diarrhea. Kind of assay: Treatment of diarrhea of dogs with formula-2.2. The format is in vivo. The procedure: Two groups of dogs suffered from acute diarrhea with the symptoms of vomiting, depression, dehydration, listlessness, an increased frequency of diarrhea were treated once per day via oral administration or intramuscular injection with: 1) Cephradine according to manufacture's instruction (antibiotic group, n=15); and 2) 1.5 ml/kg of body weight of the formula-2.2 (n=10). Eight out ten (8/10, 80%) of the dogs stopped diarrhea after one dose of the treatment with formula-2.2.

With `CCCNC[C@]1(O)[C@H](C)O[C@@H](O[C@H]2[C@H](C)[C@@H](O[C@@H]3O[C@H](C)C[C@H](N(C)C)[C@H]3O)[C@](C)(O)C[C@@H](C)CN[C@H](C)[C@@H](O)[C@](C)(O)[C@@H](CC)OC(=O)[C@@H]2C)C[C@@]1(C)OC` [Tulathromycin], in assay [1] (dog, in vivo), the “doses needed for getting recovered” value is recorded as 4-7 doses. Besides, the “Later Rec, number of dogs” value in assay [1] (dogs with respiratory infections) worked out at 5. Moreover, in assay [1] (dogs with respiratory infections, once per day), the “Early Rec (recovered within 48-72 hours), number of dogs” value is 1. The same molecule came in with an OR in assay [1] (early recovery) of 0.04. In assay [1] (recovered within 48-72 hours), the “Rate (%) of early recovery” value is 16.7%.

For `CC[C@H]1OC(=O)C[C@@H](O)[C@H](C)[C@@H](O[C@@H]2O[C@H](C)[C@@H](O)[C@H](N(C)C)[C@H]2O)[C@@H](CCN2C[C@H](C)C[C@H](C)C2)C[C@@H](C)C(=O)/C=C/C(C)=C/[C@@H]1CO[C@@H]1O[C@H](C)[C@@H](O)[C@@H](OC)[C@H]1OC` [Tilmicosin], in assay [2] (in vivo), the “doses needed for getting recovered” value is recorded as 4-5 doses. In assay [2] (piglets with respiratory syndrome), the “Odds Ratio of death” value was found to be 3.63. For the same molecule, the “Rate (%) death” value in assay [2] (weaning piglets with respiratory syndrome (asthma)) came out at 28.2%. In addition, the “Death (number of piglets)” value in assay [2] (weaning piglets with respiratory syndrome (asthma), once a day) turned out to be 11.

As for `CCN1CCN(c2cc3c(cc2F)c(=O)c(C(=O)O)cn3C2CC2)CC1` [Enrofloxacin], in the assay with rhesus rotavirus (RRV), the “OR(effect)” value is 0.06; the “OR(risk) of death” value is listed as 0.76; the duration of diarrhea was 3 to 4 days; the “outcome in words (diarrhea severity, death rate, efficacy)” value is given as “serious”. Moreover, in the assay with rhesus rotavirus (RRV) (50 μl oral once per day), the “Not effect (number of pups)” value is given as 48. The “Effect (number of pups)” value in the assay on rhesus rotavirus (RRV) (50 μl oral once per day, […]) was found to be 3. Besides, in the assay with rhesus rotavirus (RRV) (kept 3 weeks), the “Death (number of pups)” value turned out to be 12, the “Death Rate(%)” value amounted to 23.5% and the “Not died (number of pups)” value stood at 39. In addition, the “Rate(%) of effect” value in the assay on rhesus rotavirus (RRV) ([…]) is listed as 5.88%. In addition, the “day at which majority of piglets stopped diarrhea” value in assay [3] (after 4-5 dose treatment (one dose every day)) is 4 to 5 days. For the same molecule, in assay [3] (diarrhea piglets aged 5-40 days), the “Later Rec (recovered after 48 hours), number of piglets” value came to 136. The “Early Rec (recovered within 48 hours), number of piglets” value in assay [3] (diarrhea piglets aged 5-40 days, oral once per day) came out at 3. Besides, the OR in assay [3] (early recovery) came out at 0.001. Further, in assay [3] (recovered within 48 hours), the “Rate (%) of early recovery” value stood at 2.16%. In assay [4] (diarrhea piglets aged 1-5 days), the “No death (number of piglets)” value is listed as 21, the “OR(risk) of death” value turned out to be 0.19 and the “Rate (%) death rate” value is 69.6%. In assay [4] (diarrhea piglets aged 1-5 days, once per day), the “Death (number of piglets)” value worked out at 48. The “day after treatment at which majority of piglets stopped diarrhea” value in assay [4] (one dose treatment every day) lay in the range of 4 to 5 days.

In the case of `CCOC(=O)C1=C[C@@H](OC(CC)CC)[C@H](NC(C)=O)[C@@H](N)C1` [Tamiflu], the “Odds Ratio of death” value in assay [5] (influenza infection of mice) came to 0.36. Besides, in assay [5] (mouse, in vivo, ip), the “Death (number of mice)” value amounted to 21 and the “Rate (%) death rate” value worked out at 70%.

For `CC1=C(C(=O)O)N2C(=O)[C@@H](NC(=O)[C@H](N)C3=CCC=CC3)[C@H]2SC1` [Cephradine], the “Later Rec (recovered after 24 hours), number of dogs” value in assay [6] (dogs with acute diarrhea) was 14. Moreover, the “Early Rec (recovered within 24 hours), number of dogs” value in assay [6] (dogs with acute diarrhea, once per day) was 1. The molecule further showed an OR in assay [6] (early recovery) of 0.02. Also, the “Rate (%) of early recovery” value in assay [6] (recovered within 24 hours) is recorded as 6.67%.
